Key:
EGFR Δ19del/T790M/C797S = EGFR Δ19del/T790M/C797S (Homo sapiens, UniProt P00533, T790M/C797S, form not given); test: EGFR Δ19del/T790M/C797S kinase test (mobility shift, Caliper EZ Reader); assay type: biochemical; details: kinase enzymatic activity, numeric values
Experimental: Mobility variation analysis was performed to determine the affinity of the compound for EGFRΔ19del/T790M/C797S. The enzymatic reaction scheme is as follows:
1. Prepare 1* kinase buffer as follows:
2. Preparation of compound concentration gradient: The test compound was tested with an initial concentration of 3000 nM or 100 nM, diluted in a 384 source plate to a 100% DMSO solution with 100-fold final concentration, and the compound is 3-fold diluted with Precision to 10 concentrations. A dispenser Echo 550 was used to transfer 250 nL 100-fold final concentration of the compound to the target plate OptiPlate-384F.
3. Prepare 2.5-fold final concentration of kinase solution with 1×Kinase buffer;
4. Add 10 μL of 2.5-fold final concentration of kinase solution to the compound well and the positive control well; add 10 μL of 1×Kinase buffer to the negative control well.
5. Centrifuge at 1000 rpm for 30 seconds, shake the reaction plate for well mixation, and then incubate at room temperature for 10 minutes.
6. Prepare a mixture of ATP and Kinase substrate at 5/3-fold final concentration with 1×Kinase buffer.
7. Add 15 μL mixture of 5/3-fold final concentration of ATP and substrate to start reaction.
8. Centrifuge the 384-well plate at 1000 rpm for 30 seconds, shake it well and then incubate it at room temperature for corresponding time.
9. Add 30 μL of stop detection solution to stop the kinase reaction, centrifuge at 1000 rpm for 30 seconds, shake it well.
10. Read conversion rate with Caliper EZ Reader.
% Inhibition=((Conversion%_max−Conversion%_sample)/(Conversion%_max−Conversion%_min))*100
Wherein: Conversion%_sample is the sample conversion rate reading; Conversion%_min: Mean value of negative control wells, representing the conversion rate reading of wells without enzymatic activity; Conversion%_max: Mean value of positive control wells, representing the conversion rate reading of wells without compound inhibition.
The dose-effect curve was fitted with concentration log value as X-axis and percentage inhibition rate as Y-axis. Log (inhibitor) vs. Response—Variable Slope of GraphPad Prism 5 was used to fit the dose-effect curve to obtain IC50 value of enzymatic activity for each compound.
The calculation formula is as Y=Bottom (Top−Bottom)/(1+10^((LogIC50−X)*HillSlope)).
As illustrated in examples, IC50 value is within the following range for the compound of the present invention: “A” represents “IC50≤1nM”; “B” represents “1 nM<IC50≤100nM”.

[1] = Liver microsomal clearance test, monkey; assay type: in vitro ADME; details: Monkey liver microsomes, 0.5 mg/mL, NADPH
Experimental: Test 3 Liver Microsomal Clearance Test
1. Prepare 0.5 mg/mL liver microsome diluent containing K-butter and MgCl2:
2.1 Take 356 μL of the liver microsome diluent prepared above and add it to the preset wells of the incubation plate, the number of multiple wells n=1, mark it as the incubation plate.
2.2 Take 4 μL of the positive control compound Verapamil (50 μM) and the working solution of the test compound (200 μM) into the above incubation plate containing 356 μL of liver microsome diluent, and mix well (The dilution solvent from the stock solution to the working solution is a mixed solvent of acetonitrile: methanol: water=1:1:2, and the final concentration of DMSO is ≤0.5%),
2.3 Place the incubation plate in a 37° C. thermostatic oscillator (at shaking speed of 100 rpm) for pre-incubation with 10 min.
2.4 Add 40 μL of 10 mM NADPH (add 40 μL of K-buffer to the wells without NADPH) to each reaction well to start the reaction and start timing.
3. Sample collection and treatment:
3.1 After adding NADPH to start the reaction, immediately take out 50 μL of the sample and add it to the precipitation plate pre-added with 400 μL of stop solution, and shake on an oscillator at 600 rpm for 5 min at room temperature as a 0 min sample.
3.2 At the predetermined time points of 5 min, 15 min and 45 min, take out 50 μL of sample from the incubation plate and add it to the precipitation plate. The subsequent steps were the same as the treatment of 0 min sample. 3.3 After balancing, centrifuge above precipitation plate at 3200 rpm for 10 min at 4° C.
3.4 Take 50 μL of the supernatant after centrifugation and add it to pre-added 20% acetonitrile water at appropriate proportion, shake on an oscillator at 600 rpm for 2 min at room temperature, mix well, and put it into the LC-MS/MS sampler for sample injection.
Analysis of Experimental Data
1. […]

Sequence of EGFR Δ19del/T790M/C797S (P00533 with tags, fused parts or gaps DEL746-750/T790M/C797S, form open): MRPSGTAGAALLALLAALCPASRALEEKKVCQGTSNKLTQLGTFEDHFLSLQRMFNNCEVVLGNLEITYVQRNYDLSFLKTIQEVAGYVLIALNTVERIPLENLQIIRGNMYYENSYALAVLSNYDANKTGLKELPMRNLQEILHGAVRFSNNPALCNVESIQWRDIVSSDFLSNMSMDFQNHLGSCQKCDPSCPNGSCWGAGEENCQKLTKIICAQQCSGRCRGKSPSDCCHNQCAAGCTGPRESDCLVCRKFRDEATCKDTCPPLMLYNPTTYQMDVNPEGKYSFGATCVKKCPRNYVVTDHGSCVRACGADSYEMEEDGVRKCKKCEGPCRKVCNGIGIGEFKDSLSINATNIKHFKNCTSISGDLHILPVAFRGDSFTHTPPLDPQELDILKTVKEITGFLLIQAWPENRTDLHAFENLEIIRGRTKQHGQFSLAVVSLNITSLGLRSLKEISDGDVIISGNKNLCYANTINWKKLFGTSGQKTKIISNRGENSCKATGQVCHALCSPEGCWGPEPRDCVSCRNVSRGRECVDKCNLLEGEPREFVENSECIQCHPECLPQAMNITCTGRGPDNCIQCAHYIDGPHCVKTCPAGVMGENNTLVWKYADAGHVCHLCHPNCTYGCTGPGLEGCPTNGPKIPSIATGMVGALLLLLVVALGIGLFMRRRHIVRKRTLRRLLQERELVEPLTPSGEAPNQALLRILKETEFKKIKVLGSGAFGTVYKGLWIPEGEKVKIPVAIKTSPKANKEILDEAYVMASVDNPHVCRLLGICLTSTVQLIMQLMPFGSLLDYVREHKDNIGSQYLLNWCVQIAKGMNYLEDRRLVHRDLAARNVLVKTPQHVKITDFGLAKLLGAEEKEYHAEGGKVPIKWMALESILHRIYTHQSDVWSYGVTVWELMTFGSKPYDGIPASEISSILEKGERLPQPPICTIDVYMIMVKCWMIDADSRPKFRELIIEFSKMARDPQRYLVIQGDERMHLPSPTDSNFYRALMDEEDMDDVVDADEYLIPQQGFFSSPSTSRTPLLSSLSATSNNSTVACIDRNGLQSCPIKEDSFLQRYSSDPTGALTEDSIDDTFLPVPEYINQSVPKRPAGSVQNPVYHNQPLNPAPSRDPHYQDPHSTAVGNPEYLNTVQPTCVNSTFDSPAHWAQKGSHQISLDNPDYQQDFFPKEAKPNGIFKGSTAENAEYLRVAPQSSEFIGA

IC50 (EGFR Δ19del/T790M/C797S): 0.3 nM | Instrinsic clearance of liver microsomal protein, CLint [1]: 38.8 μL/min/mg proteins
Compound: COc1cc(N2CCC(N3CCN(C)CC3)CC2)c(-c2cnn(C)c2)cc1Nc1ncc(Cl)c(Nc2ccc3nccnc3c2P(C)(C)=O)n1 [Compound 1, (6-((5-Chloro-2-((2-methoxy-5-(1-methyl-1hydro-pyrazol-4-yl)-4-(4-(4-methylpiperazine-1-yl)piperidin-1-yl)phenyl)amino)pyrimidin-4-yl)amino)quinoxalin-5-yl)dimethylphosphine oxide]
